# US20180244629A1, “Compounds And Compositions For The Treatment Of Cancer” (The Broad Institute, Inc., priority 2013, published 2018)
# Where two headings read alike, the source gives them in different places.
# Tests used:
# A549 cells = experiment: A549 Cytotoxicity Assay (Cell Titer Glo viability); format: cell-based
# Protocol: A549 Cytotoxicity Assay Protocol. Day 0: A549 cells (ATCC, A549 CCL-185) are grown to 95% confluence in RPMI, 10% FBS/Pen/Strep/L-Glutamine. Day 1: Plate cells (1000 per well) in 40 μl culturing media using Corning 384-well plates (3570), incubate in standard TC conditions (5% CO2, 95% humidity, 37° C.) for 24 h. Day 2: Dilute each concentration of a half-log serial dilution of compound (1 mM-100 nM) 1:200 in culturing media and add […] (50 μl total volume) of that dilution to designated wells (8 replicates per concentration). The final dilution will be 1000×([…]). Day 4: Remove plate from incubator to cool for 20 minutes to room temperature. Add 40 μl of a 25% Promega Cell Titer Glo solution (diluted 1:3 with room temperature PBS) with Thermo combi or multichannel and incubate for 10 min. Read on Perkin-Elmer EnVision with US LUM settings for 0.1 second per well.
# A549 Assay Protocol. Day 0: A549 cells (ATCC) are grown in a Triple flask (NUNC) to ˜95% confluence (TrypLE Phenol Red free) and resuspended for dispensing at 25,000 cells/mL of DMEM, 10% FBS/Pen/Strep/L-Glutamine (using the TAP Compact SelecT automated cell culture system). Day 1: Plate cells at 1000 per well in 40 uL media (DMEM/10% FBS/Pen/Strep/L-Glutamine) using Corning 8867BC 384 well plates; incubate in standard TC conditions (5% CO2; 95% humidity, 37° C.) for 24 hours (Compact SelecT). Day 2: Add 100 nL compound per well at dose into 40 uL assay volume using a pin tool (CyBi Well). Pin 100 nL cytotoxic compounds, mitoxantrone (CID 4212) to positive control wells to a final concentration of 10 μM (100 nL 4 mM DMSO stock). Incubate for […] at 37° C. in Liconic incubator, 95% humidity 5% CO2. Day 4: Remove plate from incubator, cool for 15 minutes to room temperature; add 20 μL 50% Promega CellTiterGlo (diluted 1:1 with PBS, pH 7.4) with Thermo Combi. Incubate at room temperature for 5 minutes. Read plates on Perkin-Elmer EnVision with standard luminescence settings for 0.1 sec per well.
# (§1) Compounds as shown were tested against various cells lines in vitro according to the methods described herein. Cells are plated in 384-well format in a total volume of 40 μl. Indicated compound concentrations were added 24 hrs after plating the cells. After 48 hrs cell viability was determined using Cell Titer Glo® Luminescent Cell Viability Assay.
# as §1, with “Known PDE3 inhibitors” for “Compounds”, “shown below” for “shown”
# HeLa cells = experiment: HeLa Cytotoxicity Assay (Cell Titer Glo viability); format: cell-based
# Protocol: HeLa Cytotoxicity Assay Protocol: Day 0: HeLa cells (ATCC, HeLa CCL-2) are grown to 95% confluence in DMEM, 10% FBS/Pen/Strep/L-Glutamine. Day 1: Plate cells (1000 per well) in 40 μl culturing media using Corning 384-well plates (3570), incubate in standard TC conditions (5% CO2, 95% humidity, 37 degrees C.) for 24 hours. Day 2: Dilute each concentration of a half-log serial dilution of compound (1 mM-100 nM) 1:200 in culturing media and add 10 μl (50 μl total volume) of that dilution to designated wells (8 replicates per concentration). The final dilution will be 1000×(1 μM-100 pM). Day 4: Remove plate from incubator to cool for 20 minutes to room temperature. Add 40 μl of a 25% Promega Cell Titer Glo solution (diluted 1:3 with room temperature PBS) with Thermo combi or multichannel and incubate for 10 minutes. Read on Perkin-Elmer EnVision with US LUM settings for 0.1 second per well.
# as §1
# as §1, with “Known PDE3 inhibitors” for “Compounds”, “shown below” for “shown”
# [1] = Homo sapiens, A549, 48 hrs, Cell Titer Glo, read-out: EC50 A549
# [2] = Homo sapiens, HeLa, 48 h, Cell Titer Glo, read-out: EC50 HeLa
# [3] = Homo sapiens, A549, Mean ± SD (n = 3), read-out: Potency (EC50 nM) A549
# [4] = Homo sapiens, HeLa, Mean ± SD (n = 3), read-out: Potency (EC50 nM) HeLa
# [5] = Homo sapiens, A549, n = 2, read-out: Potency (EC50) A549
# [6] = Homo sapiens, HeLa, n = 2, read-out: Potency (EC50) HeLa
# [7] = 48 hrs, Cell Titer Glo, read-out: EC50 HeLa
# [8] = Mean ± SD (n = 3), read-out: Potency (EC50 nM) HeLa
Structure (SMILES),EC50 (A549 cells; [3]),EC50 (HeLa cells; [4]),further results
C[C@@H]1CC(=O)NN=C1c1ccc(N)c(Br)c1,,,EC50 (A549 cells; [1]): > 10000 nM; EC50 (HeLa cells; [2]): > 10000 nM
CCN(CC)c1ccc(C2=NNC(=O)CC2C)cc1 (centres unmarked),> 10000 nM,8.8 ± 2.3 nM,
CCN(CC)c1ccc(C2=NNC(=O)C[C@H]2C)cc1,> 10000 nM,3.8 ± 0.8 nM,
CCNc1ccc(C2=NNC(=O)C[C@H]2C)cc1,> 10000 nM,71 ± 7 nM,
CCN(CC)c1ccc(C2=NNC(=O)CC2C)cc1N (centres unmarked),> 10000 nM,240 ± 60 nM,
CCN(CC)c1ccc(C2=NNC(=O)CC2C)cc1NC(C)=O (centres unmarked),> 10000 nM,> 1000 nM,
CC1CC(=O)NN=C1c1ccc(N2CCOCC2)cc1 (centres unmarked),> 10000 nM,36 ± 9 nM,
CC1CC(=O)NN=C1c1ccc(N2CCOCC2)c(F)c1 (centres unmarked),> 10000 nM,2.8 ± 0.7 nM,
C[C@H]1CC(=O)NN=C1c1ccc(N2CCOCC2)c(F)c1,> 10000 nM,> 1000 nM,
CC(=O)N1CCN(c2ccc(C3=NNC(=O)C[C@H]3C)cc2F)CC1,> 10000 nM,> 1000 nM,
C[C@@H]1CC(=O)NN=C1c1ccc(N2CCN(C)CC2)cc1,> 10000 nM,310 ± 120 nM,
C[C@@H]1CC(=O)NN=C1c1ccc(N2CCCCC2)cc1,> 10000 nM,3.9 ± 0.6 nM,
C[C@@H]1CC(=O)NN=C1c1ccc(-n2cnnc2)cc1,> 10000 nM,> 1000 nM,
Cc1nc2ccc(C3=NNC(=O)C[C@H]3C)cc2[nH]1,> 10000 nM,> 1000 nM,
CC(=O)Nc1ccc(C2=NNC(=O)C[C@H]2C)cc1Cl,> 10000 nM,30 nM,
CC(=O)Nc1ccc(C2=NNC(=O)C[C@H]2C)cc1F,> 10000 nM,> 1000 nM,
C#Cc1cc(C2=NNC(=O)C[C@H]2C)ccc1NC(C)=O,> 10000 nM,65 ± 10 nM,
CC(=O)Nc1ccc(C2=NNC(=O)C[C@H]2C)cc1C(C)=O,> 10000 nM,130 ± 10 nM,
CC(=O)Nc1ccc(C2=NNC(=O)C[C@H]2C)cc1N,> 10000 nM,> 1000 nM,
C[C@@H]1CC(=O)NN=C1c1ccc(N2CCCOC2=O)cc1,> 10000 nM,> 1000 nM,
C[C@@H]1CC(=O)NN=C1c1ccc(N2CCCCS2(=O)=O)cc1,> 10000 nM,330 ± 6 nM,

Structure (SMILES),EC50 (A549 cells; [3]),EC50 (HeLa cells; [4]),further results
C[C@@H]1CC(=O)NN=C1c1ccccc1,> 10000 nM,430 ± 50 nM,
CC1CC(=O)NN=C1c1ccc(F)cc1 (centres unmarked),> 10000 nM,410 ± 270 nM,
C[C@@H]1CC(=O)NN=C1c1ccc(Cl)cc1,> 10000 nM,33 ± 5 nM,
CC1CC(=O)NN=C1c1ccc(F)c(F)c1 (centres unmarked),> 10000 nM,64 ± 3 nM,
C[C@H]1CC(=O)NN=C1c1ccc(F)c(F)c1,> 10000 nM,> 1000 nM,
C[C@@H]1CC(=O)NN=C1c1ccc(I)cc1,> 10000 nM,7.1 ± 0.8 nM,
C/C=C/c1ccc(C2=NNC(=O)C[C@H]2C)cc1,> 10000 nM,8.8 ± 1.1 nM,
CCCc1ccc(C2=NNC(=O)C[C@H]2C)cc1,> 10000 nM,16 ± 1 nM,
CC1CC(=O)NN=C1c1ccc(C2=CCCCC2)cc1 (centres unmarked),> 10000 nM,2.2 ± 0.4 nM,
CC(=O)Nc1ccc(-c2n[nH]c(=O)cc2C)cc1,> 10000 nM,> 1000 nM,
CC1(C)C(=O)NN=C1c1ccc(N)cc1,> 10000 nM,> 1000 nM,
CCN(CC)c1ccc(C2=NNC(=O)C2(C)C)cc1,> 10000 nM,> 1000 nM,
CC1(C)C(=O)NN=C1c1ccc(N2CCOCC2)cc1,> 10000 nM,> 1000 nM,
CC1(C)C(=O)NN=C1c1ccc(Cl)cc1,> 10000 nM,> 1000 nM,
O=C1CC2CCc3cc(N4CCOCC4)ccc3C2=NN1 (centres unmarked),> 10000 nM,> 1000 nM,
CCN(CC)c1ccc(-c2nc(C(C)C)no2)cc1[N+](=O)[O-],,,EC50 (A549 cells; [5]): > 10000 nM; EC50 (HeLa cells; [6]): > 10000 nM
CC1CC(=O)N(c2ccccc2)N=C1c1ccc(Cl)cc1 (centres unmarked),,,EC50 (A549 cells; [5]): > 10000 nM; EC50 (HeLa cells; [6]): > 10000 nM
CC1CC(=O)NN=C1c1cccs1 (centres unmarked),,,EC50 (A549 cells; [5]): > 10000 nM; EC50 (HeLa cells; [6]): > 10000 nM
O=C1CC(c2ccccc2)=NN1,,,EC50 (A549 cells; [5]): > 10000 nM; EC50 (HeLa cells; [6]): > 10000 nM
CCN(CC)c1ccc(C(=O)Nc2ccccc2)cc1[N+](=O)[O-],,,EC50 (A549 cells; [5]): > 10000 nM; EC50 (HeLa cells; [6]): > 10000 nM
Cc1ccc(CCC(=O)N2CCN(c3ccc(C4=NNC(=O)CC4C)cc3)CC2)cc1 (centres unmarked),,,EC50 (A549 cells; [5]): > 10000 nM; EC50 (HeLa cells; [6]): > 10000 nM

Structure (SMILES),EC50 (A549 cells; [3]),EC50 (HeLa cells; [4]),further results
CC1CC(=O)NN=C1c1ccc(N2CCN(C(=O)Cc3ccc(Cl)cc3Cl)CC2)cc1 (centres unmarked),,,EC50 (A549 cells; [5]): > 10000 nM; EC50 (HeLa cells; [6]): > 10000 nM
CC(=O)Nc1ccc(C2=NNC(=O)CC2C)cc1 (centres unmarked) [drawing 139],,,"EC50 (A549 cells; 48 hrs, Cell Titer Glo, read-out: EC50 A549): > 10000 nM; EC50 (HeLa cells; [7]): > 10000 nM"
CC(=O)Nc1ccc(C2=NNC(=O)C[C@H]2C)cc1[N+](=O)[O-] [drawing 143],,,EC50 (A549 cells; [1]): > 10000 nM; EC50 (HeLa cells; [2]): 0.00608 nM
CC(=O)Nc1ccc(C2=NNC(=O)C[C@H]2C)cc1 [drawing 144],,,EC50 (A549 cells; [1]): > 10000 nM; EC50 (HeLa cells; [2]): > 10000 nM
CC(=O)Nc1ccc(C2=NNC(=O)C[C@H]2C)cc1Br [drawing 146],,,EC50 (A549 cells; [1]): > 10000 nM; EC50 (HeLa cells; [2]): 42.1 nM
CC(=O)Nc1ccc(C2=NNC(=O)CC2C)cc1 (centres unmarked) [drawing 148],,,EC50 (A549 cells; [1]): > 10000 nM; EC50 (HeLa cells; [7]): > 1000 nM
Cc1cc(=O)[nH]nc1-c1ccc(N)cc1 [drawing 149],,,EC50 (A549 cells; [1]): > 10000 nM; EC50 (HeLa cells; [2]): > 1000 nM
CCN(CC)c1ccc(-c2n[nH]c(=O)cc2C)cc1 [drawing 150],,,EC50 (A549 cells; [1]): > 10000 nM; EC50 (HeLa cells; [2]): > 1000 nM
CCN(CC)c1ccc(C2=NNC(=O)CC2C)cc1[N+](=O)[O-] (centres unmarked) [drawing 154],> 10000 nM,,
CCN(CC)c1ccc(C2=NNC(=O)C[C@H]2C)cc1[N+](=O)[O-] [drawing 155],> 10000 nM,3.8 ± 1.1 nM,
CCNc1ccc(C2=NNC(=O)C[C@H]2C)cc1[N+](=O)[O-] [drawing 156],> 10000 nM,1.1 ± 0.5 nM,
CCN1N=C(c2ccc(N(CC)CC)cc2)[C@H](C)CC1=O [drawing 160],> 10000 nM,> 1000 nM,
C[C@@H]1CC(=O)NN=C1c1ccc(N2CCOCC2)cc1 [drawing 164],> 10000 nM,13 ± 2 nM,
C[C@@H]1CC(=O)NN=C1c1ccc(N2CCOCC2)c(F)c1 [drawing 166],> 10000 nM,1.6 ± 0.2 nM,
CC(=O)Nc1ccc(C2=NNC(=O)CC2C)cc1 (centres unmarked) [drawing 173],> 10000 nM,> 1000 nM,
CC(=O)Nc1ccc(C2=NNC(=O)C[C@H]2C)cc1 [drawing 174],> 10000 nM,> 1000 nM,
CC(=O)Nc1ccc(C2=NNC(=O)C[C@H]2C)cc1Br [drawing 175],> 10000 nM,21 ± 1 nM,
CC(=O)Nc1ccc(C2=NNC(=O)C[C@H]2C)cc1[N+](=O)[O-] [drawing 176],> 10000 nM,4.9 ± 1.1 nM,
C[C@@H]1CC(=O)NN=C1c1ccc(N2CCCC2=O)cc1 [drawing 182],> 10000 nM,,EC50 (HeLa cells; [8]): 140 ± 50 nM
C[C@@H]1CC(=O)NN=C1c1ccc(N2CCCC2=O)cc1 [drawing 183],,,"EC50 (A549 cells; Mean ± SD (n = 3), read-out: Potency (EC50 nM) A549): > 10000 nM; EC50 (HeLa cells; [8]): > 1000 nM"
C[C@@H]1CC(=O)NN=C1c1ccc(F)c(F)c1 [drawing 190],> 10000 nM,22 ± 5 nM,
